Results from US11180504B2 (ORCHID PHARMA LTD., priority 2016, dated 2021).
Values after ≈ are worked out from the molar mass of the structure shown. Read-outs that look alike come from different tables or passages of the source.

Experiments:
[1] = system: methicillin-sensitive Staphylococcus aureus; assay: MIC by broth micro-dilution (CLSI), methicillin-sensitive S. aureus; type: cell-based; conditions: MSSA S. aureus ATCC29213
[2] = system: carbapenem sensitive Pseudomonas aeruginosa; assay: MIC by broth micro-dilution (CLSI), carbapenem sensitive P. aeruginosa; type: cell-based
[3] = system: carbapenem sensitive Escherichia coli; assay: MIC by broth micro-dilution (CLSI), carbapenem sensitive E. coli; type: cell-based
[4] = system: carbapenemase producing K. pneumoniae; assay: MIC by broth micro-dilution (CLSI), carbapenemase producing K. pneumoniae; type: cell-based, Klebsiella pneumoniae
[5] = Staphylococcus aureus, ATCC 29213 / MSSA, read-out: MIC
[6] = Pseudomonas aeruginosa, ATCC27853, Meropenem susceptible P. aeruginosa ATCC27853, read-out: MIC
[7] = Escherichia coli, ATCC25922, ESBL −ve E. coli ATCC25922, read-out: MIC
[8] = Klebsiella pneumoniae, ATCCBAA1705, KPC-2 K. pneumoniae ATCC BAA-1705, read-out: MIC
[9] = Meropenem susceptible P. aeruginosa ATCC27853
[10] = KPC-2 K. pneumoniae ATCC BAA-1705

| SMILES | MIC [1, 5] | MIC [2, 6] | MIC [3, 7] | MIC [4, 8] | MIC [1] | MIC [2, 9] | MIC ([3]; ESBL −ve E. coli ATCC25922) | MIC [4, 10] |
| --- | --- | --- | --- | --- | --- | --- | --- | --- |
| C[C@@H](NC(=O)Cn1cnnn1)[C@H]1C(=O)N2C(C(=O)O)=C(S[C@@H]3CN[C@H](C(=O)N4CCC(N)CC4)C3)[C@H](C)[C@H]12 [Example 340, (4R,5S,6R)-6-((R) - 1-(2-(1H-tetrazol-1-yl)acetamido)ethyl)-3-((3S,5S)-5-(4-aminopiperidine-1-carbonyl)pyrrolidin-3-ylthio)-4-methyl-7-oxo-1-azabicyclo[3.2.0]hept-2-ene-2-carboxylic acid] | 8 mg/L (≈ 14.6 µM) | 4 mg/L (≈ 7.3 µM) | 1 mg/L (≈ 1.83 µM) | 4 mg/L (≈ 7.3 µM) |  |  |  |  |
| C[C@@H](NC(=O)CC(N)=O)[C@H]1C(=O)N2C(C(=O)O)=C(S[C@@H]3CN[C@H](C(=O)N4CC[C@@H](N)C4)C3)[C@H](C)[C@H]12 [Example 299, (4R,5S,6R)-6-((R) - 1-(3-amino-3-oxopropanamido)ethyl)-3-((3S,5S)-5-((R)-3-aminopyrrolidine-1-carbonyl)pyrrolidin-3-ylthio)-4-methyl-7-oxo-1-azabicyclo[3.2.0]hept-2-ene-2-carboxylic acid] | 16 mg/L (≈ 31.5 µM) | 16 mg/L (≈ 31.5 µM) | 4 mg/L (≈ 7.86 µM) | 8 mg/L (≈ 15.7 µM) |  |  |  |  |
| C[C@@H](NC(=O)CN)[C@H]1C(=O)N2C(C(=O)O)=C(S[C@@H]3CN[C@H](C(=O)N4CC[C@@H](N)C4)C3)[C@H](C)[C@H]12 [Example 245] | 8 mg/L (≈ 16.6 µM) | 4 mg/L (≈ 8.32 µM) | 2 mg/L (≈ 4.16 µM) | 4 mg/L (≈ 8.32 µM) |  |  |  |  |
| CNCC(=O)N[C@H](C)[C@H]1C(=O)N2C(C(=O)O)=C(S[C@@H]3CN[C@H](CNC(=O)[C@@H]4C[C@H](F)CN4)C3)[C@H](C)[C@H]12 [Example 282] | 32 mg/L (≈ 60.8 µM) | 32 mg/L (≈ 60.8 µM) | 1 mg/L (≈ 1.9 µM) | 2 mg/L (≈ 3.8 µM) |  |  |  |  |
| C[C@@H](NC(=O)Cn1cnnn1)[C@H]1C(=O)N2C(C(=O)O)=C(SC3CN(S(N)(=O)=O)C3)[C@H](C)[C@H]12 [Example 376, (4R,5S,6R)-6-((R)-1-(2-(1H-tetrazol-1-yl)acetamido)ethyl)-4-methyl-7-oxo-3-(1-sulfamoylazetidin-3-ylthio)-1-azabicyclo[3.2.0]hept-2-ene-2-carboxylic acid] | 8 mg/L (≈ 16.4 µM) | > 128 mg/L | 0.25 mg/L (≈ 0.514 µM) | 16 mg/L (≈ 32.9 µM) |  |  |  |  |
| C[C@@H](NC(=O)Cn1cnnn1)[C@H]1C(=O)N2C(C(=O)O)=C(S[C@@H]3CN[C@H](C(=O)N4C[C@H](N)C[C@@H]4CO)C3)[C@H](C)[C@H]12 [Example 474, (4R,5S,6R)-6-((R)-1-(2-(1H-tetrazol-1-yl)acetamido)ethyl)-3-((3S,5S)-5-((2R,4R)-4-amino-2-(hydroxymethyl)pyrrolidine-1-carbonyl)pyrrolidin-3-ylthio)-4-methyl-7-oxo-1-azabicyclo[3.2.0]hept-2-ene-2-carboxylic acid] | 4 mg/L (≈ 7.1 µM) | 2 mg/L (≈ 3.55 µM) | 0.25 mg/L (≈ 0.444 µM) | 2 mg/L (≈ 3.55 µM) |  |  |  |  |
| C[C@@H](NC(=O)Cn1nnnc1C(F)(F)F)[C@H]1C(=O)N2C(C(=O)O)=C(S[C@@H]3CN[C@H](C(=O)N4CC[C@@H](N)C4)C3)[C@H](C)[C@H]12 [Example 347, (4R,5S,6R)-3-((3S,5S)-5-((R)-3-aminopyrrolidine-1-carbonyl)pyrrolidin-3-ylthio)-4-methyl-7-oxo-6-((R)-1-(2-(5-(trifluoromethyl)-1H-tetrazol-1-yl)acetamido)ethyl)-1-azabicyclo[3.2.0]hept-2-ene-2-carboxylic acid] | 4 mg/L (≈ 6.65 µM) | > 128 mg/L | 0.5 mg/L (≈ 0.831 µM) | 16 mg/L (≈ 26.6 µM) |  |  |  |  |
| C[C@@H](NS(=O)(=O)Cn1cnnn1)[C@H]1C(=O)N2C(C(=O)O)=C(S[C@@H]3CN[C@H](C(=O)N4CC[C@@H](N)C4)C3)[C@H](C)[C@H]12 [Example 380, (4R,5S,6S)-6-((R)-1-((1H-tetrazol-1-yl)methylsulfonamido)ethyl)-3-((3S,5S)-5-((R)-3-aminopyrrolidine-1-carbonyl)pyrrolidin-3-ylthio)-4-methyl-7-oxo-1-azabicyclo[3.2.0]hept-2-ene-2-carboxylic acid] | 32 mg/L (≈ 56.2 µM) | 32 mg/L (≈ 56.2 µM) | 1 mg/L (≈ 1.76 µM) | 8 mg/L (≈ 14 µM) |  |  |  |  |
| C[C@@H](NC(=O)Cn1cnnn1)[C@H]1C(=O)N2C(C(=O)O)=C(S[C@@H]3CN[C@H](C(=O)N4CCC(C(=O)NCC(O)CN)CC4)C3)[C@H](C)[C@H]12 (single isomer, unassigned) [Example 573] |  |  |  |  | 4 mg/L (≈ 6.17 µM) | 1 mg/L (≈ 1.54 µM) | 0.125 mg/L (≈ 0.193 µM) | 2 mg/L (≈ 3.08 µM) |
| C[C@@H](NC(=O)Cn1cnnn1)[C@H]1C(=O)N2C(C(=O)O)=C(S[C@@H]3CN[C@H](C(=O)N4C[C@@H](N)C[C@H]4CNS(N)(=O)=O)C3)[C@H](C)[C@H]12 [Example 454, (4R,5S,6R)-6-((R)-1-(2-(1H-tetrazol-1-yl)acetamido)ethyl)-3-((3S,5S)-5-((2S,4S)-4-amino-2-((sulfamoylamino)-methyl)pyrrolidine-1-carbonyl)pyrrolidin-3-ylthio)-4-methyl-7-oxo-1-azabicyclo[3.2.0]hept-2-ene-2-carboxylic acid] | 8 mg/L (≈ 12.5 µM) | 4 mg/L (≈ 6.23 µM) | 0.5 mg/L (≈ 0.779 µM) | 4 mg/L (≈ 6.23 µM) |  |  |  |  |
| CNC(=O)CC(=O)N[C@H](C)[C@H]1C(=O)N2C(C(=O)O)=C(S[C@@H]3CN[C@H](C(=O)N(C)C)C3)[C@H](C)[C@H]12 [Example 272] | 128 mg/L (≈ 266 µM) | > 128 mg/L | 64 mg/L (≈ 133 µM) | 64 mg/L (≈ 133 µM) |  |  |  |  |
| C[C@@H](NC(=O)Cn1cnnn1)[C@H]1C(=O)N2C(C(=O)O)=C(S[C@@H]3CN[C@H](C(=O)N4CC(C)(N)C4)C3)[C@H](C)[C@H]12 [Example 405, (4R,5S,6R)-6-((R)-1-(2-(1H-tetrazol-1-yl)acetamido)ethyl)-3-((3S,5S)-5-(3-amino-3-methylazetidine-1-carbonyl)pyrrolidin-3-ylthio)-4-methyl-7-oxo-1-azabicyclo[3.2.0]hept-2-ene-2-carboxylic acid] | 4 mg/L (≈ 7.5 µM) | 4 mg/L (≈ 7.5 µM) | 0.125 mg/L (≈ 0.234 µM) | 2 mg/L (≈ 3.75 µM) |  |  |  |  |
| C[C@@H](NC(=O)Cn1cnnn1)[C@H]1C(=O)N2C(C(=O)O)=C(S[C@@H]3CN[C@H](C(=O)N4CCN(CC(N)=O)CC4)C3)[C@H](C)[C@H]12 [Example 417, (4R,5S,6R)-6-((R)-1-(2-(1H-tetrazol-1-yl)acetamido)ethyl)-3-((3S,5S)-5-(4-(2-amino-2-oxoethyl)piperazine-1-carbonyl)pyrrolidin-3-ylthio)-4-methyl-7-oxo-1-azabicyclo[3.2.0]hept-2-ene-2-carboxylic acid] | 8 mg/L (≈ 13.5 µM) | 16 mg/L (≈ 27.1 µM) | 0.5 mg/L (≈ 0.847 µM) | 2 mg/L (≈ 3.39 µM) |  |  |  |  |
| C[C@@H](NC(=O)Cn1cnnn1)[C@H]1C(=O)N2C(C(=O)O)=C(S[C@@H]3CN[C@H](C(=O)N4CCC5CN(C(=N)N)CCC54)C3)[C@H](C)[C@H]12 (single isomer, unassigned) [Example 560] |  |  |  |  | 1 mg/L (≈ 1.62 µM) | 1 mg/L (≈ 1.62 µM) | 0.125 mg/L (≈ 0.203 µM) | 0.5 mg/L (≈ 0.812 µM) |
| C[C@@H](NC(=O)c1ccccc1-n1cnnn1)[C@H]1C(=O)N2C(C(=O)O)=C(S[C@@H]3CN[C@H](C(=O)N4CC[C@@H](N)C4)C3)[C@H](C)[C@H]12 [Example 374, (4R,5S,6R)-6-((R)-1-(2-(1H-tetrazol-1-yl)benzamido)ethyl)-3-((3S,5S)-5-((R)-3-aminopyrrolidine-1-carbonyl)pyrrolidin-3-ylthio)-4-methyl-7-oxo-1-azabicyclo[3.2.0]hept-2-ene-2-carboxylic acid] | 8 mg/L (≈ 13.4 µM) | > 128 mg/L | 32 mg/L (≈ 53.7 µM) | > 128 mg/L |  |  |  |  |
| C[C@@H](NC(=O)Cn1cnnn1)[C@H]1C(=O)N2C(C(=O)O)=C(S[C@@H]3CN[C@H](C(=O)N4C[C@@H](NC(=N)N)C[C@H]4CO)C3)[C@H](C)[C@H]12 [Example 576, (4R,5S,6R)-6-((R)-1-(2-(1H-tetrazol-1-yl)acetamido)ethyl)-3-((3S,5S)-5-((2S,4S)-4-guanidino-2-(hydroxymethyl)-pyrrolidine-1-carbonyl)pyrrolidin-3-ylthio)-4-methyl-7-oxo-1-azabicyclo[3.2.0]hept-2-ene-2-carboxylic acid] | 1 mg/L (≈ 1.65 µM) | 0.25 mg/L (≈ 0.413 µM) | 0.125 mg/L (≈ 0.206 µM) | 0.5 mg/L (≈ 0.826 µM) |  |  |  |  |
| C[C@@H](NC(=O)[C@@H](N)Cn1cccn1)[C@H]1C(=O)N2C(C(=O)O)=C(S[C@@H]3CN[C@H](C(=O)N(C)C)C3)[C@H](C)[C@H]12 [Example 311, (4R,5S,6R)-6-((R) - 1-((S)-2-amino-3-(1H-pyrazol-1-yl)propanamido)ethyl)-3-((3S,5S)-5-(dimethylcarbamoyl)pyrrolidin-3-ylthio)-4-methyl-7-oxo-1-azabicyclo[3.2.0]hept-2-ene-2-carboxylic acid] | 32 mg/L (≈ 61.6 µM) | > 128 mg/L | 8 mg/L (≈ 15.4 µM) | 32 mg/L (≈ 61.6 µM) |  |  |  |  |
| C[C@@H](NC(=O)Cn1cnnn1)[C@H]1C(=O)N2C(C(=O)O)=C(S[C@@H]3CN[C@H](C(=O)N4CC5(CC(N)CO5)C4)C3)[C@H](C)[C@H]12 (single isomer, unassigned) [Example 531] |  |  |  |  | 4 mg/L (≈ 6.95 µM) | 1 mg/L (≈ 1.74 µM) | 0.125 mg/L (≈ 0.217 µM) | 2 mg/L (≈ 3.47 µM) |
| C[C@@H](NC(=O)Cn1cnnn1)[C@H]1C(=O)N2C(C(=O)O)=C(SC3CN(C(=N)N)C3)[C@H](C)[C@H]12 [Example 515, (4R,5S,6R)-6-((R)-1-(2-(1H-tetrazol-1-yl)acetamido)ethyl)-3-(1-carbamimidoylazetidin-3-ylthio)-4-methyl-7-oxo-1-azabicyclo[3.2.0]hept-2-ene-2-carboxylic acid] | 2 mg/L (≈ 4.45 µM) | 16 mg/L (≈ 35.6 µM) | 0.25 mg/L (≈ 0.556 µM) | 1 mg/L (≈ 2.22 µM) |  |  |  |  |
